{"source": "patent US20050272682A1", "about": "“SiRNA targeting PI3K signal transduction pathway and siRNA-based therapy” (priority 2004, published 2005)", "molecules": {"B1": {"name": "TNF-related apoptosis-inducing ligand (protein, UniProt P50591 1-281, looked up)", "Tumor necrosis factor ligand …": "MAMMEVQGGPSLGQTCVLIVIFTVLLQSLCVAVTYVYFTNELKQMQDKYSKSGIACFLKEDDSYWDPNDEESMNSPCWQVKWQLRQLVRKMILRTSEETISTVQEKQQNISPLVRERGPQRVAAHITGTRGRSNTLSSPNSKNEKALGRKINSWESSRSGHSFLSNLHLRNGELVIHEKGFYYIYSQTYFRFQEEIKENTKNDKQMVQYIYKYTSYPDPILLMKSARNSCWSKDAEYGLYSIYQGGIFELKENDRIFVSVTNEHLIDMDHEASFFGAFLVG", "notes": "apoptosis-inducing agent"}}, "key": {"[1]": {"tested_on": "severe acute pancreatitis mice", "assay": "CMDE diet model of severe acute pancreatitis in mice", "type": "in vivo", "experimental": "Choline and methionine deficient with ethionine (CMDE) was used to generate pancreatitis model in mice. Female Swiss-Webster mice were divided into two groups: control siRNA or p85α siRNA treatment group. Mice were injected with 10 μg control or p85α siRNA 3 days before and 1 day after starting experiment using hydrodynamic tail vein method. Mice were fed CMDE diet for 3 days. Ethionine (250 mg/kg, twice a day) was fed via gavage. After being fed with CMDE diet for 3 days, mice were fed with regular lab food. The mortality for 7 days was assessed in both groups."}, "DSS-induced colitis mice [2]": {"tested_on": "DSS-induced colitis mice", "assay": "DSS-induced colitis in mice, intrarectal siRNA", "type": "in vivo", "experimental": "(§1) 60 male C57/bl6 mice aged 8 weeks and weighed around 20 g were administered with 5% (w/v) dextran sulfate sodium (DSS) in drinking water for 7 days. DSS used was 5000 MW sulfated polysaccharide (Sigma Chemical Co., St. Louis, Mo.). It is believed that DSS has direct cytotoxic effects on epithelial cells, immune cell function interference, and luminal microflora. DSS-induced inflammatory bowel disease (IBD) was characterized by epithelial damage, mucosal inflammatory infiltrates, and luminal ulceration similar to ulcerative colitis (see FIG. 1, panels A and B).\n(§2) A validated clinical disease activity index (DAI) (Murano, et al., 2000; Murthy, et al., 1993) ranging from a score of 0 to 4 was calculated by an investigator blinded to the protocol using the following parameters: stool consistency, presence of fecal blood, and changes in body weight (Murano, et al., 2000). The stool consistency was assessed using the following four point scale: 0, normal; 1, soft; 2, very soft but formed; and 3, liquid. The intensity of the hemoccult paper test was scored by the following scale: 0, negative; 1, faintly blue; 2, moderately blue; 3, dark blue; and 4, blood visible.\n(§3) Inflammatory bowel disease (IBD) was induced in 2-month-old C57/bl6 mice using a 5% dextran sulfate sodium (DSS) solution in drinking water. siRNA directed to either p85α or Akt1 or siCONTROL was given on days 2, 3 and 4 of DSS exposure. Due to the short half-life of siRNA in vivo, siSTABLE was used which renders siRNA more resistant to degradation resulting in a half-life of 5 days. For each mouse, 5 μg of siRNA in 25 μl of transfection buffer was transferred into a sterile Eppendorf tube. In a separate sterile polystyrene tube 20 μg of DOTAP was mixed with 70 μl transfection buffer and then the siRNA mixture was transferred to the polystyrene tube containing the DOTAP and then incubated at room temperature for 30 min. Around 100 μl of the mixture was administered via the anus, by slow instillation into the lumen of the colon using a 20-gauge catheter and a 1-ml syringe. After treatment, mice were suspended head down for 30 sec. The colonic enema was performed on the second day of DSS exposure and repeated 24 and 48 h later. Cy-3 labeled siRNA were prepared for the treatment and administered as described above; mice were sacrificed at 4 and 24 hours after treatment and spleen, liver, pancreas and colon samples organs were taken and then frozen in liquid N2. Sections (6 μm) were cut with a cryostat microtome, thaw-mounted on a glass slide (cleaned with ethanol) and analyzed by fluorescent light microscopy (excitation λ=570 ηm).\nNeutrophil sequestration was measured by MPO activity determination using the O-dianisidine method as previously described (Barone, et al., 1991). Whole tissue protein (100 μg) extract was used to measure the MPO activity. Activity was expressed as the amount of enzyme necessary to generate a change in absorbance of 1.0 per min per mg wet weight of tissue.\nTissue protein (100 μg) was placed in 96-well plates. Expression of IL-1β and IL-6, TNFα, and p65 NF-κB protein in whole tissue lysates was determined using anti-mouse cytokine ELISA kits from Pierce Biotechnology, Inc. (Rockford, Ill.) as previously described (Slogoff, et al., 2004). Cytokine expression of MIP-2 was determined with an anti-mouse MIP-2 ELISA purchased from Assay Designs, Inc. (Ann Arbor, Mich.). Each ELISA was performed according to the manufacturer's instructions.\nExcised colons were evaluated for approximate length, for blood content, stool consistency, and general appearance of bowel wall. Histological examination was performed on three samples of the colon from each animal. The samples were fixed in 10% buffered formalin, dehydrated in ethanol, and then embedded in paraffin. Sections (4 μm) were then prepared and stained with hematoxylin and eosin."}, "PI3K/Akt pathway": {"tested_on": "PI3K/Akt pathway", "assay": "Western blot of colon from mice given DSS and intrarectal siRNA", "type": "in vivo", "experimental": "as §3\nWestern immunoblot analyses were performed as described previously (Wang, et al., 2002). Individual colon samples were homogenized using a Polytron power homogenizer in cell lysis buffer at 4° C. for 30 min. Lysates were clarified by centrifugation (8,000 g for 20 min at 4° C.), and sonicated for 30-45 sec on ice. Protein concentrations were determined using the method of Bradford (1976). Total protein (100 μg) was resolved on a 10% polyacrylamide gel and transferred to Immobilon-P […] membranes as described previously (Wang, et al., 2002). Filters were incubated overnight at 4° C. in blocking solution followed by a 1-h incubation with primary antibodies. Filters were washed three times in blocking solution and incubated with horseradish peroxidase-conjugated secondary antibody for 1 h. After three additional washes, the immune complexes were visualized by enhanced chemiluminescence (ECL) from Amersham (Arlington Heights, Ill.)."}, "KM20 cells": {"tested_on": "KM20 cells", "assay": "DNA fragmentation assay (Cell Death Detection ELISA), KM20 cells", "type": "cell-based, human", "conditions": "TRAIL 100 ng/mL", "experimental": "(§4) Cells were transfected with pik3r1, Akt1 or scrambled siRNA. After 48 h, adherent cells were detached by rapid trypsinization, counted in a Hausser chamber and seeded at a density of 2×10^3 cells per well in 96-well flat-bottom microtiter plates and incubated in 250 μl of growth medium for 24 h at 37° C. Media were removed and either new complete media or TRAIL (100 ng/mL) was added in a final volume of 200 μL and allowed to grow for 24 h at 37° C. After treatment, DNA fragmentation was evaluated by examination of cytoplasmic histone-associated DNA fragments (mono- and oligonucleosomes) using a Cell Death Detection ELISA^Plus kit (Roche Molecular Biochemicals) according to the manufacturer's instructions and as previously described (Wang. et al., 2002). The experiments were repeated on at least 3 separate occasions."}, "DSS-induced colitis mice [3]": {"tested_on": "DSS-induced colitis mice", "assay": "DSS-induced colitis in mice, wortmannin by oral gavage", "type": "in vivo", "conditions": "DSS 5% 7 days, wortmannin 1.5 mg/kg oral gavage daily from day 2; day 7; DSS alone mean DAI 4; scale 0 to 4", "experimental": "as §1\nas §2, with “visible. […]” for “visible.”\nHistology sections of large intestine were stained with H&E to evaluate degree of inflammatory changes in the mice before and after the wortmannin treatment. Neutrophil sequestration was assessed through MPO assay. […]"}, "KM12C cells": {"tested_on": "KM12C cells", "assay": "DNA fragmentation assay (Cell Death Detection ELISA), KM12C cells", "type": "cell-based, human", "conditions": "TRAIL 100 ng/mL", "experimental": "as §4"}, "[4]": {"conditions": "DSS, after day 3, values near control levels by day 7"}, "[5]": {"conditions": "colon, compared to DSS+control siRNA"}}, "data": [{"molecule": "p85α siRNA: siSTABLE siRNA duplex to Mus musculus p85α mRNA; sense gcagcaaccgaaacaaagcuu (SEQ ID NO:2), antisense gcuuuguuucgguugcugcuu (SEQ ID NO:3) (sense GCAGCAACCGAAACAAAGCUU; antisense GCUUUGUUUCGGUUGCUGCUU; siSTABLE chemically modified siRNA, pattern not given here)", "values": [{"measurement": "edema and bleeding in pancreas", "setting": "[1]; 10 μg siRNA by hydrodynamic tail vein 3 days before and 1 day after start", "value": "no edema and bleeding"}, {"measurement": "mice died (mortality)", "setting": "[1]; after 7 days", "value": 30, "unit": "%"}, {"measurement": "gross changes in the colon associated with DSS treatment (shortening, intraluminal hemorrhage, necrosis)", "setting": "DSS-induced colitis mice [2]; 5 μg siRNA with DOTAP intrarectally on days 2, 3 and 4 of DSS", "value": "abrogated"}, {"measurement": "preventing the bowel shortening, mucosal wall thinning and blood in the colon (comparison of the two siRNA)", "setting": "DSS-induced colitis mice [2]; DSS, intrarectal siRNA", "value": "more effective than siRNA to Akt1"}, {"measurement": "disease activity index (DAI), course", "setting": "DSS-induced colitis mice [2]; [4]", "value": "stabilized and then improved"}, {"measurement": "weight loss, course", "setting": "DSS-induced colitis mice [2]; [4]", "value": "stabilized and then improved"}, {"measurement": "cytokine tissue levels (IL-1β, IL-6, MIP-2, TNFα)", "setting": "DSS-induced colitis mice [2]; [5]", "value": "significantly attenuated"}, {"measurement": "neutrophil sequestration (MPO activity)", "setting": "DSS-induced colitis mice [2]; [5]", "value": "significantly attenuated"}, {"measurement": "p65 NF-κB activity", "setting": "DSS-induced colitis mice [2]; [5]", "value": "significantly attenuated"}, {"measurement": "leukocyte infiltration and mucosal damage (colonic histology)", "setting": "DSS-induced colitis mice [2]; compared with DSS and control siRNA", "value": "decreased"}, {"measurement": "Akt expression in colon", "setting": "PI3K/Akt pathway", "value": "not altered"}, {"measurement": "p110δ expression in colon", "setting": "PI3K/Akt pathway", "value": "not altered"}, {"measurement": "p85α expression in colon", "setting": "PI3K/Akt pathway; normal and DSS-treated colon", "value": "decreased"}, {"measurement": "pAkt expression in colon", "setting": "PI3K/Akt pathway; untreated and DSS-treated colon", "value": "decreased"}]}, {"molecule": "Z-DEVD-fmk [reference compound]", "values": [{"measurement": "induction of apoptosis mediated by the combination of TRAIL and pik3r1 or Akt1 siRNA", "setting": "KM20 cells; KM20 cells pretreated with the caspase-3 inhibitor", "value": "completely blocked"}]}, {"molecule": "COC[C@H]1OC(=O)c2coc3c2[C@@]1(C)C1=C(C3=O)[C@@H]2CCC(=O)[C@@]2(C)C[C@H]1OC(C)=O", "note": "[wortmannin, Wortmannin]", "values": [{"measurement": "mean DAI score", "setting": "DSS-induced colitis mice [3]", "value": 2}]}, {"molecule": "B1", "values": [{"measurement": "effect of TRAIL alone on cell growth", "setting": "KM12C cells", "value": "no effect"}, {"measurement": "effect of TRAIL alone on cell growth", "setting": "KM20 cells; KM20 cells", "value": "no effect"}]}]}
